Results on 46 compounds are retold here after patent publication US20200031811A1, “SUBSTITUTED MONO- AND POLYAZANAPHTHALENE DERIVATIVES AND THEIR USE” (Basilea Pharmaceutica International AG, priority 2015, published 2020).

For one assay, the target named is T1, MNK1 (Homo sapiens, UniProt Q9BUB5).
T1 construct: purchased Life Technologies or Carna Biosciences PV6023 or 02-145; host or cells: baculovirus infected insect cells
As to the kind of experiment: MNK inhibition assay (Z-Lyte kinase assay, Ser/Thr 7 peptide). In kind it is biochemical. The settings on record: for IC50: recombinant GST-MNK1, 3 hours at 31° C.; for inhibition at 1 µM: read-out: Inhibition of MNK1 activity at indicated concentration. A digest of the protocol:
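Recombinant GST-MNK1 from baculovirus-infected insect cells, Z-Lyte Ser/Thr 7 peptide, enzyme set for ~30% phosphorylation in buffer-only wells; 3 hours at 31° C. Compounds at 50–10000 nM (potent ones down to 0.5 nM), at least duplicate. IC50 from % substrate phosphorylation versus buffer-only wells, fluorescence read-out.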

The subject of assay [1] is human pancreatic cancer cell line MiaPaCa2 (ATCC CRL-1420). As to the kind of experiment: Cell growth assay (CellTiterGlo, 72 hours). The settings on record: for IC50: MIA PaCa-2, MiaPaCa2 cells, 72 hours, read-out: IC50 MiaPaCa; for inhibition at 50 µM: MIA PaCa-2, at 50 μM; for inhibition at 50 µM / inhibition at 100 µM: read-out: Inhibition of MiaPaCa growth at indicated concentration; for inhibition at 100 µM: MIA PaCa-2, at 100 μM. In kind it is cell-based. A digest of the protocol: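 MiaPaCa2 cells (10^3/well) seeded in supplemented DMEM overnight, then exposed in quadruplicate to compound at 100 down to 0.1 μM for 72 h at 37° C. Growth read by CellTiterGlo luminescence, medium-only background subtracted, normalised to untreated cells; IC50 = concentration reducing growth to 50%.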
Background: Cellular ATP, detected with luciferase, serves as a proxy for viable cell number.

T1 sequence (Q9BUB5 whole entry): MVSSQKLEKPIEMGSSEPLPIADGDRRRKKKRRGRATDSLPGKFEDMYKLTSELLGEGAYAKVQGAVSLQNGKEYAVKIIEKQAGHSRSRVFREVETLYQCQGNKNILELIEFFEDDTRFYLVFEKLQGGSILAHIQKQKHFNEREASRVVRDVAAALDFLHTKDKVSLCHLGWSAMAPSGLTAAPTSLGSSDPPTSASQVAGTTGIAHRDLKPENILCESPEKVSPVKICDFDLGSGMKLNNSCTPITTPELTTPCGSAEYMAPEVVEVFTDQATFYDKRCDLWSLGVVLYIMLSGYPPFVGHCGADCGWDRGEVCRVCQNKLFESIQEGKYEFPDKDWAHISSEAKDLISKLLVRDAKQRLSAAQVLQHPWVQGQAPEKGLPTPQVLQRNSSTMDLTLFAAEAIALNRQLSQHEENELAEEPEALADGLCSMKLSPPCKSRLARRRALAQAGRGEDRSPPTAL

Broadly, the IC50 is the point on the concentration scale where inhibition reaches its midpoint. In the case of `c1ccc2oc(-c3cncc4ccc(Cn5ccc6ccncc65)cc34)cc2c1` [Example 191, 4-(Benzofuran-2-yl)-6-(pryrrolo[2,3-c]pyridin-1-ylmethyl)isoquinoline], the IC50 worked out at 0.437 µM at MNK1 and 19 µM in assay [1].
Taken in the same sequence, the figures for `c1coc(-c2cncc3ccc(CNc4ccnc5ccccc45)cc23)c1` [Example 208] were 0.056 µM and 8.17 µM.
Taken in the same sequence, the figures for `Nc1ccc(-c2cncc3ccc(CN4CCC(N)CC4)cc23)cc1` [Example 2] were 0.093 µM and 34.6 µM.
Taken in the same sequence, the figures for `NC1CCN(Cc2ccc3cncc(-c4cnc5ccccc5c4)c3c2)CC1` [Example 173] were 0.958 µM and 9.87 µM.
Turning to `NC1CCN(Cc2ccc3cncc(-c4cn[nH]c4)c3c2)CC1` [Example 204], the IC50 at MNK1 came out at 4.7 µM. For the same compound, in assay [1], the inhibition at 50 µM was found to be 55%.
Regarding `O=c1cc(NCc2ccc3cncc(-c4cc5ccccc5o4)c3c2)cc[nH]1` [Example 74], the IC50 at MNK1 was 0.0053 µM; in assay [1], 19.2 µM.
On to `CC(=O)Nc1ccc(-c2cncc3ccc(CN4CCC(N)CC4)cc23)cc1` [Example 18, N-[4-[6-[(4-Amino-1-piperidyl)methyl]-4-isoquinolyl]phenyl]acetamide], for which the IC50 was found to be 0.459 µM at MNK1 and 30.4 µM in assay [1].
Taken in the same sequence, the figures for `Nc1cc(Nc2ccc3cncc(-c4cc5ccccc5o4)c3c2)ccn1` [Example 137, N4-[4-(Benzofuran-2-yl)-6-isoquinolyl]pyridine-2,4-diamine] were 1.09 µM and 3.25 µM.
Turning to `Nc1ccc(Nc2ccc3cncc(-c4cc5ccccc5o4)c3c2)cc1` [Example 132, N1-[4-(Benzofuran-2-yl)-6-isoquinolyl]benzene-1,4-diamine], the IC50 at MNK1 stood at 3.12 µM. Further, the inhibition at 100 µM in assay [1] came to 53%.
As to `Nc1ncc(-c2cc3ccccc3o2)c2cc(NCc3ccncc3)ccc12` [Example 233, 4-(Benzofuran-2-yl)-N6-(4-pyridylmethyl)isoquinoline-1,6-diamine], the IC50 was 4.3 µM on MNK1 and 6.8 µM in assay [1].
For `Cc1cnccc1NCc1ccc2cncc(-c3cc4ccccc4o3)c2c1` [Example 69] the same measures were 0.017 µM and 7 µM.
In the case of `Cc1c[n+](Cc2ccc3cncc(-c4cc5ccccc5o4)c3c2)ccc1N` [Example 57], the IC50 at MNK1 is 0.0079 µM; in assay [1] it was 3.37 µM.
For `NC1CCN(Cc2cc3c(-c4ccccc4)cncc3cc2Cl)CC1` [Example 251, 1-[(7-Chloro-4-phenyl-6-isoquinolyl)methyl]piperidin-4-amine] the same measures were 0.055 µM and 4.55 µM.
Turning to `Cc1ccc(-c2cncc3ccc(CN4CCC(N)CC4)cc23)o1` [Example 167, 1-[[4-(5-methyl-2-furyl)-6-isoquinolyl]methyl]piperidin-4-amine], the IC50 was 1.04 µM on MNK1 and 0.8 µM in assay [1].
For `COc1ccc(-c2cncc3ccc(CN4CCC(N)CC4)cc23)cn1` [Example 201] the same measures were 0.803 µM and 25.2 µM.
Regarding `NCc1ccc(Nc2ccc3cncc(-c4cc5ccccc5o4)c3c2)cc1` [Example 133], the IC50 on MNK1 was found to be 0.152 µM; in assay [1], 11.5 µM.
Take `N#Cc1cccc(-c2cncc3ccc(CN4CCC(N)CC4)cc23)c1` [Example 5]: the inhibition at 1 µM at MNK1 was determined as 39%. In assay [1], the IC50 was 32.6 µM.
Turning to `Nc1cccc(NCc2ccc3cncc(-c4cc5ccccc5o4)c3c2)c1` [Example 48], the IC50 worked out at 1.15 µM on MNK1 and 25 µM in assay [1].
Regarding `NCc1cccc(Nc2ccc3cncc(-c4cc5ccccc5o4)c3c2)c1` [Example 136], the IC50 on MNK1 stood at 0.558 µM; in assay [1], 20.6 µM.
Taken in the same sequence, the figures for `Nc1cnccc1NCc1ccc2cncc(-c3cc4ccccc4o3)c2c1` [Example 76, N4-[[4-(Benzofuran-2-yl)-6-isoquinolyl]methyl]pyridine-3,4-diamine] were 0.0059 µM and 4.75 µM.
Taken in the same sequence, the figures for `Nc1ncc(-c2cc3ccccc3o2)c2cc(N[C@H]3CC[C@H](N)CC3)cc(Cl)c12` [Example 313] were 0.282 µM and 2.06 µM.
Taken in the same sequence, the figures for `COc1cc(CN2CCC(N)CC2)cc2c(-c3ccccc3)cncc12` [Example 246] were 0.432 µM and 5.73 µM.
Regarding `N[C@@H]1CCN(Cc2ccc3cncc(-c4cc5ccccc5o4)c3c2)C[C@@H]1O` [Example 269, (3S,4R/3R,4S)-4-Amino-1-[[4-(benzofuran-2-yl)-6-isoquinolyl]methyl]piperidin-3-ol], the IC50 was 0.141 µM on MNK1 and 9.03 µM in assay [1].
Taken in the same sequence, the figures for `NCCCOCc1ccc2c(N)ncc(-c3cc4ccccc4o3)c2c1` [Example 109, 6-(3-Aminopropoxymethyl)-4-(benzofuran-2-yl)isoquinolin-1-amine] were 0.687 µM and 8.54 µM.
Taken in the same sequence, the figures for `Nc1ncc(-c2ccccc2)c2cc(CN3CCNCC3)ccc12` [Example 91, 4-Phenyl-6-(piperazin-1-ylmethyl)isoquinolin-1-amine] were 0.476 µM and 11.3 µM.
As to `N[C@H]1CC[C@@H](NC(=O)c2ccc3cncc(-c4cc5ccccc5o4)c3c2)CC1` [Example 161], the figures for the IC50 (on MNK1; in assay [1]) were 0.465 µM and 24 µM, respectively.
`Nc1ncc(-c2cc3ccccc3o2)c2cc(CN3CCC(N)CC3)ccc12` [Example 153, 6-[(4-Amino-1-piperidyl)methyl]-4-(benzofuran-2-yl)isoquinolin-1-amine]: the IC50 at MNK1 is 0.131 µM; in assay [1], 3.5 µM.
Taken in the same sequence, the figures for `NCCOc1ccc2cncc(-c3cc4ccccc4o3)c2c1` [Example 102, 2-[[4-(Benzofuran-2-yl)-6-isoquinolyl]oxy]ethanamine] were 1.05 µM and 7 µM.
On to `Nc1cc[n+](Cc2ccc3cncc(-c4ccccc4)c3c2)cc1` [Example 121, 1-[(4-Phenyl-6-isoquinolyl)methyl]pyridin-1-ium-4-amine], for which the IC50 on MNK1 was 0.165 µM; in assay [1], 21.8 µM.
Turning to `NCCCNCc1ccc2cncc(-c3ccc(O)cc3)c2c1` [Example 25], the results for the IC50 (at MNK1; in assay [1]) were 0.166 µM and 14.6 µM, respectively.
On to `Cn1cc(-c2cncc3ccc(CN4CCC(N)CC4)cc23)cn1` [Example 203], for which the IC50 on MNK1 came out at 0.624 µM. Also, the inhibition at 50 µM in assay [1] was found to be 48%.
For `N[C@H]1CC[C@H](C(=O)Nc2ccc3cncc(-c4cc5ccccc5o4)c3c2)CC1` [Example 156, trans-4-Amino-N-[4-(benzofuran-2-yl)-6-isoquinolyl]cyclohexanecarboxamide], the IC50 at MNK1 turned out to be 0.371 µM; in assay [1], 10.4 µM.
On to `Nc1ncc(-c2ccc(Cl)cc2)c2cc(CN3CCC(N)CC3)cc(Cl)c12` [Example 284], for which the half-inhibitory concentration (IC50) came to 0.16 µM on MNK1 and 4.23 µM in assay [1].
Taken in the same sequence, the figures for `NC1CCN(Cc2ccc3cncc(-c4ccc5cnccc5c4)c3c2)CC1` [Example 193] were 1.05 µM and 11.5 µM.
In the case of `Nc1ncc(-c2cccc(Cl)c2)c2cc(CN3CCC(N)CC3)ccc12` [Example 216], the IC50 on MNK1 worked out at 1.11 µM; in assay [1] it was 2.52 µM.
As for `NC1CCN(Cc2ccc3cncc(-c4cc5ccncc5o4)c3c2)CC1` [Example 274], the IC50 at MNK1 amounted to 0.624 µM; in assay [1] it was 3.98 µM.
As for `NC1CCN(Cc2ccc3cncc(-c4ccc(NC(=O)NC5CC5)cc4)c3c2)CC1` [Example 118], the IC50 on MNK1 was 0.422 µM. Further, in assay [1], the inhibition at 100 µM stood at 48%.
In the case of `Nc1ncc(-c2ccco2)c2cc(CN3CCC(N)CC3)ccc12` [Example 289], the IC50 on MNK1 is 0.418 µM; in assay [1], 10.3 µM.
For `Nc1cc[n+](Cc2ccc3cncc(-c4cc5ccccc5o4)c3c2)c2ccccc12` [Example 54, 1-[[4-(Benzofuran-2-yl)-6-isoquinolyl]methyl]quinolin-1-ium-4-amine] the same measures were 0.015 µM and 2.85 µM.
Take `N#Cc1cc(CN2CCC(N)CC2)cc2c(-c3cc4ccccc4o3)cncc12` [Example 306, 6-[(4-Amino-1-piperidyl)methyl]-4-(benzofuran-2-yl)isoquinoline-8-carbonitrile]: the IC50 was 0.179 µM at MNK1 and 9.13 µM in assay [1].
Taken in the same sequence, the figures for `Cn1nccc1Oc1ccc2cncc(-c3cc4ccccc4o3)c2c1` [Example 96] were 3.99 µM and 6.14 µM.
Taken in the same sequence, the figures for `NC1CCN(Cc2cc(Cl)c3cncc(-c4ccco4)c3c2)CC1` [Example 239] were 0.1 µM and 3.2 µM.
`c1ccc2oc(-c3cncc4ccc(CN5CCNCC5)nc34)cc2c1` [Example 302]: the IC50 on MNK1 worked out at 0.142 µM; in assay [1], 18 µM.
`CC(C)(C)c1cc(NC(=O)Nc2ccc(-c3cncc4ccc(CN5CCC(N)CC5)cc34)cc2)no1` [Example 116]: the IC50 at MNK1 was found to be 0.887 µM; in assay [1], 3.07 µM.
For `N[C@H]1CC[C@@H](Oc2ccc3cncc(-c4cc5ccccc5o4)c3c2)CC1` [Example 80] the same measures were 0.675 µM and 3.55 µM.
Turning to `Oc1ccc(-c2cncc3ccc(CN4CCOCC4)cc23)cc1` [Example 26], at MNK1, the inhibition at 1 µM was found to be 40%. The IC50 in assay [1] stood at 54.3 µM.
